From patent US8609666B2, “2-morpholino-pyrido[3,2-D]pyrimidines” (Merck Serono SA, priority 2009, dated 2013)
pIC50: −log10 of the molar value.

Test system: Human recombinant GST-PI3K
Assay: PI3K induced-lipid phosphorylation scintillation proximity assay (neomycin-coated SPA beads)
Format: biochemical
Settings: amount necessary to achieve 50% inhibition of PI3K; 120 min at room temperature
Excerpt: The efficacy of compounds of the invention in inhibiting the PI3K induced-lipid phosphorylation may be tested in the following binding assay. The assay combines the scintillation proximity assay technology (SPA, Amersham) with the capacity of neomycin (a polycationic antibiotic) to bind phospholipids with high affinity and specificity. The Scintillation Proximity Assay is based on the properties of weakly emitting isotopes (such as ^3H, ^125I, ^33P). Coating SPA beads with neomycin allows the detection of phosphorylated lipid substrates after incubation with recombinant PI3K and radioactive ATP in the same well, by capturing the radioactive phospholipids to the SPA beads through their specific binding to neomycin. To a 96 wells MTP containing 10 μl of the test compound of Formula (I) (solubilized in 10% DMSO; to yield a concentration of 100, 25, 5.0, 1.25, 0.312, 0.078, 0.0195, 0.00488, 0.00122 and 0.0003 μM of the test compound), the following assay components are added: 1) 10 μL of lipid micelles 2) […] of Kinase buffer ([^33P]γATP162 μM/300 nCi, MgCl2 2.5 mM, DTT 2.5 mM, Na3VO4 25 μM in Hepes 40 mM, pH 7.4) and 3) 10 μL (100 ng) of Human recombinant GST-PI3K (in Hepes 40 mM, pH 7.4, ethylenglycol 4%). After incubation at room temperature for 120 minutes, with gentle agitation, the reaction is stopped by addition of 200 μL of a solution containing 250 μg of neomycin-coated PVT SPA beads, ATP 60 mM and EDTA 6.2 mM in PBS. The assay is further incubated at room temperature for 60 minutes with gentle agitation to allow binding of phospholipids to neomycin-SPA beads. After precipitation of the neomycin-coated PVT SPA beads for 5 minutes at 1500×g, radioactive PtdIns(3)P is quantified by scintillation counting in a Wallac MicroBeta™ plate counter. The values indicated in Table I below refer to the IC50 (μM) with respect to PI3K, i.e. the amount necessary to achieve 50% inhibition of said target. Said values show a considerable inhibitory potency of pyridopyrimidine compounds with regard to PI3K.

Going from CN(C)c1cc(C(=O)O)nc2c(-c3cccc(CO)c3)nc(N3CCOCC3)nc12 [Example 23, 8-Dimethylamino-4-(3-hydroxymethyl-phenyl)-2-morpholin-4-yl-pyrido[3,2-d]pyrimidine-6-carboxylic acid] to CN(CCO)c1cc(C(=O)O)nc2c(-c3cccc(CO)c3)nc(N3CCOCC3)nc12 [Example 24, 8-[(2-Hydroxy-ethyl)-methyl-amino]-4-(3-hydroxymethyl-phenyl)-2-morpholin-4-yl-pyrido[3,2-d]pyrimidine-6-carboxylic acid], the pIC50 falls from 7.47 to 7.13 (0.34 log units).

Compared with COCCNc1cc(C(=O)O)nc2c(-c3cccc(F)c3O)nc(N3CCOCC3)nc12 [Example 36, 4-(3-Fluoro-2-hydroxyphenyl)-8-[(2-methoxyethyl)amino]-2-morpholin-4-ylpyrido[3,2-d]pyrimidine-6-carboxylic acid], O=C(O)c1cc(NCCO)c2nc(N3CCOCC3)nc(-c3cccc(F)c3O)c2n1 [Example 38, 4-(3-Fluoro-2-hydroxyphenyl)-8-[(2-hydroxyethyl)amino]-2-morpholin-4-ylpyrido[3,2-d]pyrimidine-6-carboxylic acid] is 0.37 log units lower in pIC50: 7.74 for the first, 7.37 for the second. The first is the more potent here.

Compared with O=C(O)c1cc(Cl)c2nc(N3CCOCC3)nc(-c3ccccc3)c2n1 [Example 64, 8-Chloro-2-morpholin-4-yl-4-phenylpyrido[3,2-d]pyrimidine-6-carboxylic acid], COc1cccc(-c2nc(N3CCOCC3)nc3c(Cl)cc(C(=O)O)nc23)c1 [Example 1, 8-Chloro-4-(3-methoxyphenyl)-2-morpholin-4-ylpyrido[3,2-d]pyrimidine-6-carboxylic acid] is 0.20 log units lower in pIC50: 6.17 for the first, 5.97 for the second.

Going from COCCOc1cc(C(=O)O)nc2c(-c3cccc(O)c3)nc(N3CCOCC3)nc12 [Example 11, 4-(3-Hydroxy-phenyl)-8-(2-methoxy-ethoxy)-2-morpholin-4-yl-pyrido[3,2-d]pyrimidine-6-carboxylic acid] to COCCOc1cc(C(=O)O)nc2c(-c3ccc(O)cc3)nc(N3CCOCC3)nc12 [Example 6, 4-(4-Hydroxy-phenyl)-8-(2-methoxy-ethoxy)-2-morpholin-4-yl-pyrido[3,2-d]pyrimidine-6-carboxylic acid], the pIC50 falls from 6.59 to 5.60 (0.99 log units).

CN(C)CCN(C)c1cc(C(=O)O)nc2c(-c3cccc4[nH]ccc34)nc(N3CCOCC3)nc12 [Example 57, 8-[[2-(Dimethylamino)ethyl](methyl)amino]-4-(1H-indol-4-yl)-2-morpholin-4-ylpyrido[3,2-d]pyrimidine-6-carboxylic acid] and CN(C)c1cc(C(=O)O)nc2c(-c3cccc4[nH]ccc34)nc(N3CCOCC3)nc12 [Example 17, 8-Dimethylamino-4-(1H-indol-4-yl)-2-morpholin-4-yl-pyrido[3,2-d]pyrimidine-6-carboxylic acid] are within 0.2 log units of each other in pIC50: 6.86 for the first, 6.88 for the second.

CN(C)c1cc(C(=O)O)nc2c(-c3ccc(O)cc3)nc(N3CCOCC3)nc12 [Example 4, 8-Dimethylamino-4-(4-hydroxy-phenyl)-2-morpholin-4-yl-pyrido[3,2-d]pyrimidine-6-carboxylic acid] and Cc1cc(C(=O)O)nc2c(-c3cccc(O)c3)nc(N3CCOCC3)nc12 [Example 62, 4-(3-Hydroxyphenyl)-8-methyl-2-morpholin-4-ylpyrido[3,2-d]pyrimidine-6-carboxylic acid] are within 0.2 log units of each other in pIC50: 6.46 for the first, 6.65 for the second.

First: CNc1cc(C(=O)O)nc2c(-c3cccc(O)c3)nc(N3CCOCC3)nc12 [Example 40, 4-(3-Hydroxyphenyl)-8-(methylamino)-2-morpholin-4-ylpyrido[3,2-d]pyrimidine-6-carboxylic acid]
Second: O=C(O)c1cc(NCCO)c2nc(N3CCOCC3)nc(-c3cccc(O)c3)c2n1 [Example 12, 8-(2-Hydroxy-ethylamino)-4-(3-hydroxy-phenyl)-2-morpholin-4-yl-pyrido[3,2-d]pyrimidine-6-carboxylic acid]
The pIC50 of the first is 0.28 log units lower: 6.84 for the first, 7.12 for the second.

Compared with COCCOc1cc(C(=O)O)nc2c(-c3cc(O)cc(F)c3)nc(N3CCOCC3)nc12 [Example 15, 4-(3-Fluoro-5-hydroxy-phenyl)-8-(2-methoxy-ethoxy)-2-morpholin-4-yl-pyrido[3,2-d]pyrimidine-6-carboxylic acid], CNc1cc(C(=O)O)nc2c(-c3cc(F)ccc3O)nc(N3CCOCC3)nc12 [Example 30, 4-(5-Fluoro-2-hydroxyphenyl)-8-(methylamino)-2-morpholin-4-ylpyrido[3,2-d]pyrimidine-6-carboxylic acid] is 0.51 log units lower in pIC50: 7.03 for the first, 6.52 for the second.

O=C(O)c1ccc2nc(N3CCOCC3)nc(-c3cccc(O)c3)c2n1 [Example 41, 4-(3-Hydroxyphenyl)-2-morpholin-4-ylpyrido[3,2-d]pyrimidine-6-carboxylic acid] and CC(=O)N1CCN(c2cc(C(=O)O)nc3c(-c4cccc(O)c4)nc(N4CCOCC4)nc23)CC1 [Example 60, 8-(4-Acetylpiperazin-1-yl)-4-(3-hydroxyphenyl)-2-morpholin-4-ylpyrido[3,2-d]pyrimidine-6-carboxylic acid] are within 0.2 log units of each other in pIC50: 7.20 for the first, 7.10 for the second.

Compared with CS(=O)(=O)c1cc(C(=O)O)nc2c(-c3cccc(F)c3O)nc(N3CCOCC3)nc12 [Example 39], CNc1cc(C(=O)O)nc2c(-c3ccc(F)cc3O)nc(N3CCOCC3)nc12 [Example 53, 4-(4-Fluoro-2-hydroxyphenyl)-8-(methylamino)-2-morpholin-4-ylpyrido[3,2-d]pyrimidine-6-carboxylic acid] is 1.20 log units lower in pIC50: 7.59 for the first, 6.39 for the second. The first is the more potent here.

First: CN(CCO)c1cc(C(=O)O)nc2c(-c3ccc(F)c(CO)c3)nc(N3CCOCC3)nc12 [Example 50, 4-[4-Fluoro-3-(hydroxymethyl)phenyl]-8-[(2-hydroxyethyl)(methyl)amino]-2-morpholin-4-ylpyrido[3,2-d]pyrimidine-6-carboxylic acid]
Second: COCCN(C)c1cc(C(=O)O)nc2c(-c3cccc(CO)c3)nc(N3CCOCC3)nc12 [Example 47, 4-[3-(Hydroxymethyl)phenyl]-8-[(2-methoxyethyl)(methyl)amino]-2-morpholin-4-ylpyrido[3,2-d]pyrimidine-6-carboxylic acid]
The pIC50 of the first is 1.58 log units lower: 6.52 for the first, 8.10 for the second. The second is the more potent here.

Compared with COCc1cccc(-c2nc(N3CCOCC3)nc3c(NCCO)cc(C(=O)O)nc23)c1 [Example 28, 8-(2-Hydroxy-ethylamino)-4-(3-methoxymethyl-phenyl)-2-morpholin-4-yl-pyrido[3,2-d]pyrimidine-6-carboxylic acid], COCCNc1cc(C(=O)O)nc2c(-c3cccc4[nH]ccc34)nc(N3CCOCC3)nc12 [Example 19, 4-(1H-Indol-4-yl)-8-(2-methoxy-ethylamino)-2-morpholin-4-yl-pyrido[3,2-d]pyrimidine-6-carboxylic acid] is 1.29 log units higher in pIC50: 5.60 for the first, 6.89 for the second.

Compared with CNc1cc(C(=O)O)nc2c(-c3cccc4[nH]ccc34)nc(N3CCOCC3)nc12 [Example 18, 4-(1 H-Indol-4-yl)-8-methylamino-2-morpholin-4-yl-pyrido[3,2-d]pyrimidine-6-carboxylic acid], CN(C)CCN(C)c1cc(C(=O)O)nc2c(-c3ccccc3O)nc(N3CCOCC3)nc12 [Example 43, 8-[[2-(Dimethylamino)ethyl](methyl)amino]-4-(2-hydroxyphenyl)-2-morpholin-4-ylpyrido[3,2-d]pyrimidine-6-carboxylic acid] is 0.23 log units higher in pIC50: 6.11 for the first, 6.34 for the second. The second is the more potent here.

With CS(=O)(=O)N1CCN(c2cc(C(=O)O)nc3c(-c4cccc(O)c4)nc(N4CCOCC4)nc23)CC1 [Example 61, 4-(3-Hydroxyphenyl)-8-[4-(methylsulfonyl)piperazin-1-yl]-2-morpholin-4-ylpyrido[3,2-d]pyrimidine-6-carboxylic acid] the pIC50 was 7.82.
